Data reported in article PMC4822204 (Biomolecular Detection and Quantification, 2015).

How the values were obtained:
Format in all cases: biochemical
[1] = target: T1, alkaline phosphatase from bovine intestine (Bos taurus, UniProt P19111); assay: AP colorimetric assay; conditions: detergent at two concentrations above its critical micelle concentration
Target sequence in this assay (P19111 20-533): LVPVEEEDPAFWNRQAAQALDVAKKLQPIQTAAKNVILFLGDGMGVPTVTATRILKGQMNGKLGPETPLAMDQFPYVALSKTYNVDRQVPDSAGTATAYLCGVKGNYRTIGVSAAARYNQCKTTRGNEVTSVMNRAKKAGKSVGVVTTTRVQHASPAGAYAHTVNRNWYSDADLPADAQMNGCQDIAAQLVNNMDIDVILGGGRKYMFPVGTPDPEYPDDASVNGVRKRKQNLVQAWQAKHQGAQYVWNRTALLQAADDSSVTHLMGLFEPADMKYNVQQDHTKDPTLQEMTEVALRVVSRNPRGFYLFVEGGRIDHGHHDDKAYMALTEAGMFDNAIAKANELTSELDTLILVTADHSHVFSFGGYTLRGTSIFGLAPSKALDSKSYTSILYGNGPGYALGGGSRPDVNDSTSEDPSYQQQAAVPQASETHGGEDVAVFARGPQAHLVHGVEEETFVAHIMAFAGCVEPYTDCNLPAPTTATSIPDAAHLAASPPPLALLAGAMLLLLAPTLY

[2] = target: T1, alkaline phosphatase from bovine intestine; assay: AP fluorometric assay; conditions: for Hill coefficient / kcat / Km / Vmax: hydrolysis of DiFMUP by AP; for Km / Vmax / IC50 / apparent AP Vmax: ± 95% confidence interval; for IC50: 60 min; for apparent AP Vmax: substrate DiFMUP
Target sequence in this assay (P19111 20-506 limits assumed): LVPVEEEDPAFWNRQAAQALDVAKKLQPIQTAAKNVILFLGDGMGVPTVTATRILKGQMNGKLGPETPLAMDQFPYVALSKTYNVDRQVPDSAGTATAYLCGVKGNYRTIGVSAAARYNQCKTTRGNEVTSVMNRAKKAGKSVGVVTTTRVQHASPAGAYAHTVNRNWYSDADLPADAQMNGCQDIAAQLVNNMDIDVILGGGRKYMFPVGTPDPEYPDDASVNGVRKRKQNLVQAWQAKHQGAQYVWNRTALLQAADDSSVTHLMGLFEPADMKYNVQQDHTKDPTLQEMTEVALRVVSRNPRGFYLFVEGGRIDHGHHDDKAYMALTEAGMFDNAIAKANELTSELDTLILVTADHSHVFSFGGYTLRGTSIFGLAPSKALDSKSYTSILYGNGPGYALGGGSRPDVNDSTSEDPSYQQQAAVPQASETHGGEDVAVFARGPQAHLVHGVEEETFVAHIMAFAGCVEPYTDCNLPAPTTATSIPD

[3] = test system: alkaline phosphatase from bovine intestine; assay: Reversibility test by rapid dilution of the enzyme-inhibitor complex

## C[C@H](CCC(=O)NCCC[N+](C)(C)CCCS(=O)(=O)[O-])[C@H]1CC[C@H]2[C@@H]3[C@H](O)C[C@@H]4C[C@H](O)CC[C@]4(C)[C@H]3C[C@H](O)[C@]12C [CHAPS]
[1]
  increase in AP activity: up to 40%

## C[S+](C)[O-] [DMSO]
[2]; DMSO concentrations up to 1.5%
  decrease in reaction velocity: less than 10%

## Cc1cc(=O)oc2c(F)c(OP(=O)(O)O)c(F)cc12 [DiFMUP, 6,8-difluoro-4-methylumbelliferyl phosphate]
[2]; pH 6.5, 37 °C
  Hill coefficient: 1
  kcat: 37 s⁻¹
  Km: 0.2 ± 0.04 µM
  Vmax: 32 ± 2 µmol/min/mg
[2]; pH 7.0, 37 °C
  Hill coefficient: 1
  kcat: 82 s⁻¹
  Km: 0.5 ± 0.04 µM
  Vmax: 71 ± 3 µmol/min/mg
[2]; pH 7.5, 37 °C
  Hill coefficient: 1
  kcat: 147 s⁻¹
  Km: 1.4 ± 0.2 µM
  Vmax: 126 ± 3 µmol/min/mg
[2]; pH 8.0, 37 °C
  Hill coefficient: 1
  kcat: 211 s⁻¹
  Km: 2.8 ± 0.1 µM
  Vmax: 181 ± 1 µmol/min/mg

## [Na+].[Na+].[Na+].[O]=[V]([O-])([O-])[O-] [Na3VO4, sodium orthovanadate]
[2]; 0.025 μM DiFMUP, pH 6.5, 37 °C
  IC50: 1000 ± 400 nM
[2]; 0.050 μM DiFMUP, pH 6.5, 37 °C
  IC50: 1500 ± 400 nM
[2]; 0.100 μM DiFMUP, pH 6.5, 37 °C
  IC50: 1600 ± 300 nM
[2]; 0.200 μM DiFMUP, pH 6.5, 37 °C
  IC50: 2300 ± 400 nM
[2]; 0.400 μM DiFMUP, pH 6.5, 37 °C
  IC50: 4000 ± 400 nM
[2]; 0.800 μM DiFMUP, pH 6.5, 37 °C
  IC50: 6100 ± 900 nM
[2]; 1.600 μM DiFMUP, pH 6.5, 37 °C
  IC50: 11000 ± 3000 nM
[2]; IC50 rises with DiFMUP concentration, apparent KM but not Vmax rises
  mode of inhibition: competitive
[2]; Na3VO4 0.084 μM
  apparent AP Vmax: 567 ± 18 RFU min^−1
[2]; Na3VO4 0.250 μM
  apparent AP Vmax: 561 ± 35 RFU min^−1
[2]; Na3VO4 0.760 μM
  apparent AP Vmax: 566 ± 24 RFU min^−1
[2]; Na3VO4 2.28 μM
  apparent AP Vmax: 546 ± 32 RFU min^−1
[2]; Na3VO4 6.68 μM
  apparent AP Vmax: 513 ± 53 RFU min^−1
[3]
  reversibility of inhibition: rapidly reversible

## Triton X-100
[1]
  increase in AP activity: up to 40%

## Tween 20
[1]
  increase in AP activity: up to 40%
